Data set [1] concerns the target recombinant human β-secretase (rhBACE-1) (Homo sapiens (Human), UniProt P56817). The data set can be described thus: β-Secretase enzyme inhibition assay (Test Example 1). The format is biochemical. As to conditions: compound solution 3 μM (FIG. 1 legend: 1.0 μM), 37° C., 2 hr, fluorescent substrate peptide. The protocol: β-Secretase Enzyme Inhibition Assay
Compounds were dissolved in dimethylsulfoxide (DMSO), and further diluted in 0.1 M sodium acetate buffer (with 150 mM sodium chloride, pH 4.5). The solution with no compound was used as a negative control. Then, 100 μL of these solutions (compound concentration: 3 μM), 1 μL of recombinant human β-secretase (rhBACE-1, R&D), and 5 μL of the fluorescent substrate peptide were mixed in a black 96-well plate (Nunc). After mixtures were incubated in the dark at 37° C. for 2 hr, the fluorescence intensities of the mixtures were measured by fluorescence microplate reader (Wallac) at 540 nm for excitation and at 590 nm for emission. The inhibition ratio was calculated as a percentage of the negative control. The sequence of the peptide was […] and labeled with fluorescent donor (Cy3) at Ser-1 and with quencher (Cy5Q) at Lys-9, respectively (Invitrogen).

recombinant human β-secretase (rhBACE-1), sequence (P56817 46-501): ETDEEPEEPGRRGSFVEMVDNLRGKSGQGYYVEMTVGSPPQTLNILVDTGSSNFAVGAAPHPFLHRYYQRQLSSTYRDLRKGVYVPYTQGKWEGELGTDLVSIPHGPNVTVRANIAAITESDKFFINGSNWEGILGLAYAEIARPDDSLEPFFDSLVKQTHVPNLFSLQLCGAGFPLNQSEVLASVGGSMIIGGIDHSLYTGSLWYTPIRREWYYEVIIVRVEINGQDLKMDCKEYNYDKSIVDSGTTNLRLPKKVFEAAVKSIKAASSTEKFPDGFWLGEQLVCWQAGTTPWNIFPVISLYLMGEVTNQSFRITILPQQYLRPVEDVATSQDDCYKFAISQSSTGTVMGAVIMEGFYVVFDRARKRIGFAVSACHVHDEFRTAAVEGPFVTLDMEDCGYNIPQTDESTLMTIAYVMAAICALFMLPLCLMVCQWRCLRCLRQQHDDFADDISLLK

A word on the melting point: it is the temperature, or range, at which the solid turns liquid. Compound `COc1cc(/C=C/C(=O)CC(=O)/C=C/c2cccc(O)c2OC)ccc1O` [CU001, (1E,6E)-1-(3-hydroxy-2-methoxyphenyl)-7-(4-hydroxy-3-methoxyphenyl)hepta-1,6-diene-3,5-dione] registered a melting point of 152 to 155 °C. For the same compound, the “inhibition of BACE-1 enzyme activity (inhibitory activities (%) shown in FIG. 1)” value in data set [1] is recorded as “strongly inhibited”. The corresponding values for `CCn1c2ccccc2c2cc(/C=C/C(=O)CC(=O)/C=C/c3ccc(O)c(OC)c3)ccc21` [CU017, (1E,6E)-1-(9-ethyl-9H-carbazol-3-yl)-7-(4-hydroxy-3-methoxyphenyl)hepta-1,6-diene-3,5-dione] are 165 to 169 °C and “strongly inhibited”. The corresponding values for `O=C(/C=C/c1ccc(O)cc1)CC(=O)/C=C/c1ccc(O)c(F)c1` [CU030, (1E,6E)-1-(3-fluoro-4-hydroxyphenyl)-7-(4-hydroxyphenyl)hepta-1,6-diene-3,5-dione] are 190 to 192 °C and “strongly inhibited”.

Take `COc1cc(/C=C/C(=O)CC(=O)/C=C/c2ccc(O)c(C)c2)ccc1O` [CU031, (1E,6E)-1-(4-hydroxy-3-methoxyphenyl)-7-(4-hydroxy-3-methylphenyl)hepta-1,6-diene-3,5-dione]: the melting point fell in the range of 173 to 175 °C. Moreover, in data set [1], the “inhibition of BACE-1 enzyme activity (inhibitory activities (%) shown in FIG. 1)” value is “strongly inhibited”. Regarding `COc1ccc(/C=C/C(=O)CC(=O)/C=C/c2cc(O)cc(O)c2)cc1O` [CU094, (1E,6E)-1-(3,5-dihydroxyphenyl)-7-(3-hydroxy-4-methoxyphenyl)hepta-1,6-diene-3,5-dione], the melting point was in the range of 190 to 193 °C. Moreover, in data set [1], the “inhibition of BACE-1 enzyme activity (inhibitory activities (%) shown in FIG. 1)” value is “strongly inhibited”.

The compound `COc1ccc(/C=C/C(=O)CC(=O)/C=C/c2c(OC)cccc2OC)cc1O` [CU104, (1E,6E)-1-(2,6-dimethoxyphenyl)-7-(3-hydroxy-4-methoxyphenyl)hepta-1,6-diene-3,5-dione] yielded a melting point of 74 to 80 °C. For the same compound, the “inhibition of BACE-1 enzyme activity (inhibitory activities (%) shown in FIG. 1)” value in data set [1] is recorded as “strongly inhibited”. For `O=C(/C=C/c1ccc(O)cc1)CC(=O)/C=C/c1c[nH]c2ccccc12` [CU110, (1E,6E)-1-(4-hydroxyphenyl)-7-(1H-indol-3-yl)hepta-1,6-diene-3,5-dione] the same measures were 215 to 220 °C and “strongly inhibited”. Regarding `O=C(/C=C/c1ccc(O)cc1)CC(=O)/C=C/c1cccc2ccccc12` [CU112, (1E,6E)-1-(4-hydroxyphenyl)-7-(naphthalen-1-yl)hepta-1,6-diene-3,5-dione], the “inhibition of BACE-1 enzyme activity (inhibitory activities (%) shown in FIG. 1)” value in data set [1] is on record as “strongly inhibited”. Regarding `COc1ccc(/C=C/C(=O)CC(=O)/C=C/c2ccc(O)cc2)c2ccccc12` [CU116, (1E,6E)-1-(4-hydroxyphenyl)-7-(4-methoxynaphthalen-1-yl)hepta-1,6-diene-3,5-dione], the melting point lay in the range of 193 to 198 °C. For the same compound, in data set [1], the “inhibition of BACE-1 enzyme activity (inhibitory activities (%) shown in FIG. 1)” value is on record as “strongly inhibited”. For `COc1cc(/C=C/C(=O)CC(=O)/C=C/c2cccn2C)ccc1O` [CU121, (1E,6E)-1-(4-hydroxy-3-methoxyphenyl)-7-(1-methyl-1H-pyrrol-2-yl)hepta-1,6-diene-3,5-dione] the same measures were 131 to 132 °C and “strongly inhibited”. In the case of `COc1ccc(/C=C/C(=O)CC(=O)/C=C/c2cccn2C)cc1O` [CU122, (1E,6E)-1-(3-hydroxy-4-methoxyphenyl)-7-(1-methyl-1H-pyrrol-2-yl)hepta-1,6-diene-3,5-dione], the “inhibition of BACE-1 enzyme activity (inhibitory activities (%) shown in FIG. 1)” value in data set [1] is reported as “strongly inhibited”. For the compound `COc1ccc(/C=C/C(=O)CC(=O)/C=C/c2cccc(O)c2OC)cc1O` [CU176, (1E,6E)-1-(3-hydroxy-2-methoxyphenyl)-7-(3-hydroxy-4-methoxyphenyl)hepta-1,6-diene-3,5-dione], the melting point fell in the range of 190 to 192 °C. Also, in data set [1], the “inhibition of BACE-1 enzyme activity (inhibitory activities (%) shown in FIG. 1)” value was “strongly inhibited”. The corresponding values for `O=C(/C=C/c1ccc(O)cc1)CC(=O)/C=C/c1ccc2[nH]ccc2c1` [CU187, (1E,6E)-1-(4-hydroxyphenyl)-7-(1H-indol-5-yl)hepta-1,6-diene-3,5-dione] are 222 to 226 °C and “strongly inhibited”. `COc1cc(/C=C/C(=O)CC(=O)/C=C/c2ccc3cc[nH]c3c2)ccc1O` [CU190, (1E,6E)-1-(4-hydroxy-3-methoxyphenyl)-7-(1H-indol-6-yl)hepta-1,6-diene-3,5-dione]: in data set [1], the “inhibition of BACE-1 enzyme activity (inhibitory activities (%) shown in FIG. 1)” value was “strongly inhibited”. Same read-out and setting: under `Cn1cc(/C=C/C(=O)CC(=O)/C=C/c2ccc(O)cc2)cn1` [CU198, (1E,6E)-1-(4-hydroxyphenyl)-7-(1-methyl-1H-pyrrazol-4-yl)hepta-1,6-diene-3,5-dione] stands “strongly inhibited”. `O=C(/C=C/c1ccc(O)cc1)CC(=O)/C=C/c1cc(OCc2ccccc2)ccc1-c1ccccc1` [CU527, (1E,6E)-1-(4-benzyloxybiphenyl-2-yl)-7-(4-hydroxyphenyl)hepta-1,6-diene-3,5-dione] registered a melting point of 172 to 178 °C. Still for that read-out and setting: under `O=C(/C=C/c1ccc(O)cc1)CC(=O)/C=C/c1ccccc1-c1cccc2ccccc12` [CU528, (1E,6E)-1-(4-hydroxyphenyl)-7-[2-(naphthalen-1-yl)phenyl]hepta-1,6-diene-3,5-dione] stands 95 to 101 °C. On the same count and under the same terms, next, `O=C(/C=C/c1ccc(O)cc1)CC(=O)/C=C/c1ccccc1-c1ccc2ccccc2c1` [CU529, (1E,6E)-1-(4-hydroxyphenyl)-7-[2-(naphthalen-2-yl)phenyl]hepta-1,6-diene-3,5-dione]: 105 to 114 °C. In the case of `CN(C)c1cc(Br)ccc1/C=C/C(=O)CC(=O)/C=C/c1ccc(O)cc1` [CU533, (1E,6E)-1-(4-bromo-2-dimethylaminophenyl)-7-(4-hydroxyphenyl)hepta-1,6-diene-3,5-dione], the melting point is 74 to 81 °C. Still for that read-out and setting: next, `CN(C)c1ccc(Br)cc1/C=C/C(=O)CC(=O)/C=C/c1ccc(O)cc1` [CU534, (1E,6E)-1-(5-bromo-2-dimethylaminophenyl)-7-(4-hydroxyphenyl)hepta-1,6-diene-3,5-dione]: 68 to 72 °C; `CN(C)c1ccc(C(F)(F)F)cc1/C=C/C(=O)CC(=O)/C=C/c1ccc(O)cc1` [CU535, (1E,6E)-1-(2-dimethylamino-5-trifluoromethylphenyl)-7-(4-hydroxyphenyl)hepta-1,6-diene-3,5-dione]: 68 to 74 °C.

`CN(C)c1cc(-c2ccccc2)ccc1/C=C/C(=O)CC(=O)/C=C/c1ccc(O)cc1` [CU536, (1E,6E)-1-(3-dimethylaminobiphenyl-4-yl)-7-(4-hydroxyphenyl)hepta-1,6-diene-3,5-dione] returned a melting point of 83 to 88 °C. The compound `CN(C)c1ccc(-c2ccccc2)cc1/C=C/C(=O)CC(=O)/C=C/c1ccc(O)cc1` [CU537, (1E,6E)-1-(4-dimethylaminobiphenyl-3-yl)-7-(4-hydroxyphenyl)hepta-1,6-diene-3,5-dione] came in with a melting point of 82 to 88 °C. On the same count and under the same terms, next, `O=C(/C=C/c1ccc(O)cc1)CC(=O)/C=C/c1cc(O)ccc1-c1cccc2ccccc12` [CU538, (1E,6E)-1-[5-hydroxy-2-(naphthalen-1-yl)phenyl]-7-(4-hydroxyphenyl)hepta-1,6-diene-3,5-dione]: 215 to 221 °C; `COc1cc(/C=C/C(=O)CC(=O)/C=C/c2ccc(O)cc2)c(Br)cc1O` [CU539, (1E,6E)-1-(2-bromo-4-hydroxy-5-methoxyphenyl)-7-(4-hydroxyphenyl)hepta-1,6-diene-3,5-dione]: 237 to 242 °C. The compound `O=C(/C=C/c1cc(O)ccc1-c1ccccc1)CC(=O)CCc1ccc(O)cc1` [CU541, (E)-1-(4-hydroxybiphenyl-2-yl)-7-(4-hydroxyphenyl)hept-1-ene-3,5-dione] came in with a melting point of 148 to 158 °C. `O=C(/C=C/c1cc(O)ccc1-c1cccc2ccccc12)CC(=O)CCc1ccc(O)cc1` [CU542, (E)-1-[5-hydroxy-2-(naphthalen-1-yl)phenyl]-7-(4-hydroxyphenyl)hept-1-ene-3,5-dione]: the melting point was in the range of 138 to 142 °C. Same read-out and setting: under `COc1cc(Br)c(/C=C/C(=O)CC(=O)/C=C/c2ccc(O)cc2)cc1O` [CU543, (1E,6E)-1-(2-bromo-5-hydroxy-4-methoxyphenyl)-7-(4-hydroxyphenyl)hepta-1,6-diene-3,5-dione] stands 224 to 229 °C; under `O=C(/C=C/c1ccc(O)cc1)CC(=O)/C=C/c1cc(O)c(Br)cc1Br` [CU544, (1E,6E)-1-(2,4-dibromo-5-hydroxyphenyl)-7-(4-hydroxyphenyl)hepta-1,6-diene-3,5-dione], 255 to 259 °C.

For the compound `O=C(/C=C/c1ccc(O)c(Cl)c1)CC(=O)CCc1ccc(O)cc1` [CU546, (E)-1-(3-chloro-4-hydroxyphenyl)-7-(4-hydroxyphenyl)hept-1-ene-3,5-dione], the melting point fell in the range of 45 to 51 °C. Compound `O=C(/C=C/c1cc(O)ccc1Br)CC(=O)CCc1ccc(O)cc1` [CU549, (E)-1-(2-bromo-5-hydroxyphenyl)-7-(4-hydroxyphenyl)hept-1-ene-3,5-dione] registered a melting point of 161 to 165 °C.

These data come from US8962674B2 (Tokyo Institute of Technology, priority 2006, dated 2015).
